The text below walks through data of publication PMC4977286 (Frontiers in Pharmacology, 2016).

Data set [1] concerns rat liver microsomes. Conditions: for TNP-G formation, Liver microsome: rat. Background: Microsomes from liver hold many membrane-bound enzymes, among them those of drug oxidation.
In data set [2] the target is T1, UGT1A1 (Homo sapiens, UniProt P22309).
T1 sequence (P22309 26-533): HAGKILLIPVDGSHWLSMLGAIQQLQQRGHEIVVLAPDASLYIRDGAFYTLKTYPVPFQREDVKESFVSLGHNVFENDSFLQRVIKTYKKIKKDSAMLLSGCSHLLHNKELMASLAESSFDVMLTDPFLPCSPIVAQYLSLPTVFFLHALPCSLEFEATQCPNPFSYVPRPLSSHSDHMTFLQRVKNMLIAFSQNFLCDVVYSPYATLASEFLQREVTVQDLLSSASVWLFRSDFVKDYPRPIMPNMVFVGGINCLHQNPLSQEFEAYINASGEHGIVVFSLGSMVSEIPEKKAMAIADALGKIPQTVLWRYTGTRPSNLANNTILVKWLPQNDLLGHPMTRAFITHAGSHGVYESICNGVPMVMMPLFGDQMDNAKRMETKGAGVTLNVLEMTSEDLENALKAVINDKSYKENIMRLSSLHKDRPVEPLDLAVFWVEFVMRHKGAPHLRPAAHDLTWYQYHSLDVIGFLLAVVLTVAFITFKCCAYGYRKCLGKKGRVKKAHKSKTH

The target of data set [3] is MRP2 (Rattus norvegicus, UniProt Q63120). Nature of the data set: Bile clearance of TNP-G in SCRH with MRP2 inhibitors or inducer. Conditions: for BEI of TNP-G, % of the control cells: TNP-G 20 μM; for BEI of TNP-G, % of the control cells / CLbile, int of TNP-G decreased by: inhibitor 100 μM.
Sequence of MRP2 (Rattus norvegicus, UniProt Q63120) (Q63120 whole entry): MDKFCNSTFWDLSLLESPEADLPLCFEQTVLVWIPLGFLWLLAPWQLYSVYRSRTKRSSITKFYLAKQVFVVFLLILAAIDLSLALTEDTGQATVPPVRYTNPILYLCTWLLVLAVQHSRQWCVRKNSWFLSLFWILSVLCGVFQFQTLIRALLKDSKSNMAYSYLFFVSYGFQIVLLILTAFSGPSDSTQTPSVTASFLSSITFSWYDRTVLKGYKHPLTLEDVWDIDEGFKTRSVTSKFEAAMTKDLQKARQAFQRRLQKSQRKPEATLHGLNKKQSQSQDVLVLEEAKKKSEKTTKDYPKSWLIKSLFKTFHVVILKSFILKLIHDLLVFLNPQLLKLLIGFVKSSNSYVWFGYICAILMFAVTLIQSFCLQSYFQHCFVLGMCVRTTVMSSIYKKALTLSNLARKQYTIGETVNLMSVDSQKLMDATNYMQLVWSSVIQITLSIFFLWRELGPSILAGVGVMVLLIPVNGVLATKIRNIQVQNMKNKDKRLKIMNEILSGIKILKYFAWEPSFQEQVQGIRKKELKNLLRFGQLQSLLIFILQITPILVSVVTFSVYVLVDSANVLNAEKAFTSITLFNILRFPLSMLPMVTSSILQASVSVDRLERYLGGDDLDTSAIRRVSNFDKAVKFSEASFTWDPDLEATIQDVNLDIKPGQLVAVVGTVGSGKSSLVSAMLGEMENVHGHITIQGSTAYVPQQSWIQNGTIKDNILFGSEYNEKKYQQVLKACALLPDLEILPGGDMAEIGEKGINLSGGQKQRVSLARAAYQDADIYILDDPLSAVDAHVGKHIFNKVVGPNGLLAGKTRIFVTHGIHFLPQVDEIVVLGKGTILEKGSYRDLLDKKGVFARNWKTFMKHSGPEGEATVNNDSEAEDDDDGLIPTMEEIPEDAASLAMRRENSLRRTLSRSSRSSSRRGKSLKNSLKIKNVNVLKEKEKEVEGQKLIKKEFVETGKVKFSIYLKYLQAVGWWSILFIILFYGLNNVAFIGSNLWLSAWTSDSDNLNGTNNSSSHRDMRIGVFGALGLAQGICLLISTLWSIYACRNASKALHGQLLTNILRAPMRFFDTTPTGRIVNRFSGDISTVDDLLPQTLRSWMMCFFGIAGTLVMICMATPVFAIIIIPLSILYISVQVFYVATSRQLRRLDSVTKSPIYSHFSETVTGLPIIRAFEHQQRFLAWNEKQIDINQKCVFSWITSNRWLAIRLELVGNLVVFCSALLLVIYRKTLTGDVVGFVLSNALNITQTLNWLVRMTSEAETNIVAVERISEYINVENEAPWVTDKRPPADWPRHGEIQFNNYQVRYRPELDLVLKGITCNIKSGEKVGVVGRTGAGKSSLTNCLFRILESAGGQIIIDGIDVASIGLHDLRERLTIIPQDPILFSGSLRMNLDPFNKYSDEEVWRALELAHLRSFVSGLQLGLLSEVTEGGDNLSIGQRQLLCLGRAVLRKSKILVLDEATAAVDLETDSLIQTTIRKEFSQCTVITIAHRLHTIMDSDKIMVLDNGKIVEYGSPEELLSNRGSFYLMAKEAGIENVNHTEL
For data set [4], the target named is T2, MRP2 (Homo sapiens, UniProt Q92887). It counts as biochemical. More on the design: purchased BD Gentest Co. (Woburn, MA).
T2 sequence (Q92887 whole entry): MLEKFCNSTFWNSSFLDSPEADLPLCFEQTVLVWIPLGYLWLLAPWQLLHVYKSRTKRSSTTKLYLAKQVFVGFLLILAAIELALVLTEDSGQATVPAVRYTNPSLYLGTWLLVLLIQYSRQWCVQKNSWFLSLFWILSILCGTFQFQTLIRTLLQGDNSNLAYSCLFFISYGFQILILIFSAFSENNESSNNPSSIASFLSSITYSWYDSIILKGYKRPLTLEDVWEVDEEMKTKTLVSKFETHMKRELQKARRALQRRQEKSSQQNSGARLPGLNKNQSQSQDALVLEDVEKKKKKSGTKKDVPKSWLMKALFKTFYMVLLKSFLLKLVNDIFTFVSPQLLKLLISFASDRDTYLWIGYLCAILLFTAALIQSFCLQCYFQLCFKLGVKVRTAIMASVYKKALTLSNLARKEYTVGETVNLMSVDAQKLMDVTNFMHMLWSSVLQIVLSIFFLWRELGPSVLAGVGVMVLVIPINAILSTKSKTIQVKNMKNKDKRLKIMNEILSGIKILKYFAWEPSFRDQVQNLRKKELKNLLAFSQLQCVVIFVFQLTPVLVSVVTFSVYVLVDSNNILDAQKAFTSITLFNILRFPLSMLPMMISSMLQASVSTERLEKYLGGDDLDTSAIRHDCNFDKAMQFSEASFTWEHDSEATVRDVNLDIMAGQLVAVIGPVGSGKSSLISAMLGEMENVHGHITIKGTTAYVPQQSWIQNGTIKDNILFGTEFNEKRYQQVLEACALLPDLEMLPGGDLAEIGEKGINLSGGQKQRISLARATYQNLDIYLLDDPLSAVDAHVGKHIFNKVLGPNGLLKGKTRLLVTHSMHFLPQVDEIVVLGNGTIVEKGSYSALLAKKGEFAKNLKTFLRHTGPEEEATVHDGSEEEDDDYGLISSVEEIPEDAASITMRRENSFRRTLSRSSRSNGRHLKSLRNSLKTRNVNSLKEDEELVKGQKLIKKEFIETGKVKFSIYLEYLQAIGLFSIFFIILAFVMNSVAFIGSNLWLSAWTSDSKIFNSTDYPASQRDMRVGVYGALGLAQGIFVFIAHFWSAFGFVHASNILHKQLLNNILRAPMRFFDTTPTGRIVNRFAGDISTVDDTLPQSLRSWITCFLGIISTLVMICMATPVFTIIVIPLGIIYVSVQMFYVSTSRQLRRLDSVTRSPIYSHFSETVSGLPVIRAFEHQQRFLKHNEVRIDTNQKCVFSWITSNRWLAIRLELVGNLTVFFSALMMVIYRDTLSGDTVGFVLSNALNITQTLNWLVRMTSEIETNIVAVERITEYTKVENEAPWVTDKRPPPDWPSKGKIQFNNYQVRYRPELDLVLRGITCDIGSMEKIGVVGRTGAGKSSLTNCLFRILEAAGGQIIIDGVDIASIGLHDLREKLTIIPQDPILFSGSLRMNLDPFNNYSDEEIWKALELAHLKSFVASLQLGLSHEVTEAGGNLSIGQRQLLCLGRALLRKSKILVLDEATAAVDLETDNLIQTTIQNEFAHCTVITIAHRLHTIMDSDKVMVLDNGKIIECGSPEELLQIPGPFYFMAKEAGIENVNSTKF
For data set [5] the following is noted: rat, in vivo.
Data set [6] relates to P-gp.
Data set [7] addresses T3, BCRP (Homo sapiens, UniProt Q9UNQ0).
T3 sequence (Q9UNQ0 1-655): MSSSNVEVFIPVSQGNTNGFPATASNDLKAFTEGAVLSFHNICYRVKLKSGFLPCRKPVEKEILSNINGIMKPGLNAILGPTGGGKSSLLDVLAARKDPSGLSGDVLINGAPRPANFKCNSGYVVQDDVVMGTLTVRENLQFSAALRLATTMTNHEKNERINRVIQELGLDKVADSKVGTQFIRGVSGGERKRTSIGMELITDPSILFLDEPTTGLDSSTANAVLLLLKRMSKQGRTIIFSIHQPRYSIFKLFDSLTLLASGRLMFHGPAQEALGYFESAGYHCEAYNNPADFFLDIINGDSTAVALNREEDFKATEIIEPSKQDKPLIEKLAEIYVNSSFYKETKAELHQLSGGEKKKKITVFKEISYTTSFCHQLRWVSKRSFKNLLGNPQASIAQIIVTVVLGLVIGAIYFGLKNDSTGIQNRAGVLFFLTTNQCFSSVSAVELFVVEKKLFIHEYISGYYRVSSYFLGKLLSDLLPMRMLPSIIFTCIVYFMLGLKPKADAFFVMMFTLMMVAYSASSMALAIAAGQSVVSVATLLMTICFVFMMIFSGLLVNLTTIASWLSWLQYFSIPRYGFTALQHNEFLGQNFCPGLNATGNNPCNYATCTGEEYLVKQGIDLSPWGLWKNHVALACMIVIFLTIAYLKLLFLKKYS

The target in data set [8] is T2, MRP2.
Data set [9] has as its target MDR1 (Homo sapiens, UniProt P08183).
For data set [10], the system named is sandwich-cultured rat hepatocytes (SCRH).
Data set [11] concerns the target P-gp (Homo sapiens, UniProt P08183).
Data set [12] in a line: in vivo. Conditions: rat.
For data set [13] the following is noted: mouse, in vivo.
Data set [14] can be described thus: in vivo. Conditions: mouse, po, 12 mg/kg.
The conditions of data set [15]: cited from earlier work.

Like-named read-outs stand apart in the source and are kept apart here. A value given as a limit tells only on which side of the number the result lay.

What is called AUC(0-t) is the area under the concentration-time curve up to a stated or last time point. Low readings indicate less exposure, high ones more exposure. By MRT is commonly meant a mean duration of stay, worked out from the concentration-time curve. As a reminder, the half-life is how long it takes for the measured level to halve.

Sequence of MDR1 (P08183 whole entry): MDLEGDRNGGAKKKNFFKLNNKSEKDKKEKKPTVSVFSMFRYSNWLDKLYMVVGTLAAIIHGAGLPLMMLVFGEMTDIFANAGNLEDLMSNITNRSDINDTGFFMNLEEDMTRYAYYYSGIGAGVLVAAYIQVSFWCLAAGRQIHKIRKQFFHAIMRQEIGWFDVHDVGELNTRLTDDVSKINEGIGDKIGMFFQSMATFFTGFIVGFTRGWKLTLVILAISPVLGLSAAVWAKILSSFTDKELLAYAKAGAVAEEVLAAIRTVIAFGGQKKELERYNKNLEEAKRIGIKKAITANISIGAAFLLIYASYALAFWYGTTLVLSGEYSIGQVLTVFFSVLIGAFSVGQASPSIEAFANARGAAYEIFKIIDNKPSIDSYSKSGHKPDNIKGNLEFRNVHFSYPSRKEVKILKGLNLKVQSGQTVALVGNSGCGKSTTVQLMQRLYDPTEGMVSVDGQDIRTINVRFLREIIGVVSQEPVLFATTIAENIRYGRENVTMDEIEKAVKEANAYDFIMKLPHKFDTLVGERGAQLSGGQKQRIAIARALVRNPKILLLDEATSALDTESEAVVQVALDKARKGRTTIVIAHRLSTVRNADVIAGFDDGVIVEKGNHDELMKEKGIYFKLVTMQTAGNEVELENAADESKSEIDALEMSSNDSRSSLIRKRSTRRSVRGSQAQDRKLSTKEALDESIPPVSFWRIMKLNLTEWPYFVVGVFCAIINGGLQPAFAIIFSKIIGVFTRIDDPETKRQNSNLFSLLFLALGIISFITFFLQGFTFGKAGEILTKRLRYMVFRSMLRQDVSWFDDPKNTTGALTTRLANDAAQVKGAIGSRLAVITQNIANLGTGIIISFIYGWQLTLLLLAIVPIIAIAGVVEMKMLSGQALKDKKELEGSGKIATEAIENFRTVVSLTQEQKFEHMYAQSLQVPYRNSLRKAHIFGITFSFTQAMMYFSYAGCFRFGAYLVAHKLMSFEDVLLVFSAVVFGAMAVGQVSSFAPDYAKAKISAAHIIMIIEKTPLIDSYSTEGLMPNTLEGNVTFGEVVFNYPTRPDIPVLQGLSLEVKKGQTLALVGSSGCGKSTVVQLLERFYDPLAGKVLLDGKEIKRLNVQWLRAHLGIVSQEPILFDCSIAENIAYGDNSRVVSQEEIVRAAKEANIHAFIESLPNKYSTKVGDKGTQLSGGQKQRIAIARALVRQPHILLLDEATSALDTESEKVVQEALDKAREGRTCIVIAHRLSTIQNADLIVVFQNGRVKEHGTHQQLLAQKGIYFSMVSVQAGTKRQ

On to `C[C@@H]1C[C@H]2[C@@H]3CCC4=CC(=O)C=C[C@]4(C)[C@@]3(F)[C@@H](O)C[C@]2(C)[C@@]1(O)C(=O)CO` [Dexamethasone, dexamethasone], for which the “TNP-G formation, Liver microsome” value in data set [1] came out at 2219.3 ± 52.8 ng/mL. Also, the “TNP-G formation, UGT1A1” value in data set [2] was determined as 1542.4 ± 27.9 ng/mL.
`CN(Cc1cnc2nc(N)nc(N)c2n1)c1ccc(C(=O)N[C@@H](CCC(=O)O)C(=O)O)cc1` [Methotrexate, methotrexate]: in data set [3], the “BEI of TNP-G, % of the control cells” value is 20% and the “CLbile, int of TNP-G decreased by” value was determined as 74.2%.
Regarding `CCCN(CCC)S(=O)(=O)c1ccc(C(=O)O)cc1` [Probenecid, probenecid], the “effect on TNP glucuronidation” value in data set [1] was “no significant effect”. Moreover, the “TNP-G formation, Liver microsome” value in data set [1] (60 min, 100 µM) is 2191.5 ± 123.1 ng/mL. Moreover, the “TNP-G formation, UGT1A1” value in data set [2] worked out at 1527.5 ± 83.9 ng/mL. Also, in data set [3], the “BEI of TNP-G, % of the control cells” value is recorded as 22.8% and the “CLbile, int of TNP-G decreased by” value came to 78.1%. In addition, in data set [4], the “Vanadate-sensitive ATPase activities, MRP2” value was found to be 5.7 ± 0.2 nmol/min/mg. In data set [5], the “24 h biliary excretion rate of TNP-G, % of the control level” value came to 74%.
Regarding `O=c1c(O)c(-c2ccc(O)c(O)c2)oc2cc(O)cc(O)c12` [Quercetin, quercetin], the “TNP-G formation, Liver microsome” value in [1] (60 min, 100 µM) was 2170.7 ± 33.6 ng/mL. Moreover, in data set [6] (rat), the “BEI of TNP, fold compared with the control” value is 2.1 fold and the “CLbile, int of TNP, fold compared with the control” value turned out to be 1.7 fold. Besides, the “TNP-G formation, UGT1A1” value in [2] worked out at 1590.8 ± 30.5 ng/mL.
Take `O=C(O)c1cc(/N=N/c2ccc(S(=O)(=O)Nc3ccccn3)cc2)ccc1O` [Sulfasalazine, sulfasalazine, reference compound]: the “Vanadate-sensitive ATPase activities, BCRP” value in data set [7] is 32.2 ± 1.3 nmol/min/mg.
As for `COC12CCC3(CC1C(C)(O)CCc1cccs1)C1Cc4ccc(OC5OC(C(=O)O)C(O)C(O)C5O)c5c4C3(CCN1CC1CC1)C2O5` (stereo not shown) [TNP-G, thienorphine-3-glucuronide], in data set [8], the “intracellular concentration, increase compared with the NC-siRNA group” value turned out to be 2.1 fold. Further, in data set [9], the “Vanadate-sensitive ATPase activities, MDR1” value worked out at 4.2 ± 0.8 nmol/min/mg. For the same compound, in [7], the “Vanadate-sensitive ATPase activities, BCRP” value worked out at 5.8 ± 0.8 nmol/min/mg. For the same compound, in data set [10], the “CLbile, int From Eq. 2” value was 11.2 ± 2.7 mL/min/kg; the “CLbile,pred (plasma total concentration) relative to measured CLbile,obs” value was approximately 1.3 fold; the “CLbile,pred From Eq. 3” value was 8.7 ± 1.7 mL/min/kg; the “CLbile,pred From Eq. 4” value stood at 0.2 ± 0.01 mL/min/kg. Besides, in [10], the “average BEI (biliary excretion index)” value was 41.4 ± 2.6. For the same compound, the “intracellular concentration, increase compared with the NC-siRNA group” value in data set [11] is on record as “not impacted”. In data set [12], this compound showed a dose excreted not above 28%. Besides, in data set [13], the “increase in AUC0-t compared to the NC-siRNA group” value worked out at 1.9 fold and the “increase in Cmax compared to the NC-siRNA group” value is given as 2.7 fold. Further, in data set [13] (po, 12 mg/kg), the “AUC(0-t)” value amounted to 202.7 ± 70.7 ng·h/mL, the MRT is 6.7 ± 1.7 h and the t1/2 was 6.1 ± 1.1 h. The compound also had an area under the curve AUC(0-t) in data set [14] (AUC(0-t)) of 108 ± 19.6 ng·h/mL. In data set [14] (MRT), this compound returned an MRT of 5.7 ± 2 h. The same compound gave a half-life in [14] (t1/2) of 4.3 ± 1.7 h. Also, the “CLbile,int of TNP-G” value in data set [3] (dexamethasone 0 μM (control)) is 4.2 ± 0.1 mL/min/kg. The “CLbile,int of TNP-G” value in data set [3] (methotrexate 0 μM (control)) stood at 3.1 ± 0.4 mL/min/kg. In [3] (probenecid 0 μM (control)), the “CLbile,int of TNP-G” value worked out at 1.6 ± 0.03 mL/min/kg. Besides, in data set [4], the “Transporter substrate finding, MRP2” value is “MRP2 substrate” and the “Vanadate-sensitive ATPase activities, MRP2” value stood at 4.1 ± 0.6 nmol/min/mg. In data set [15], the “fu,p (plasma unbound fraction)” value is 0.02. Also, in data set [5], the “CLbile,obs From Eq.5” value was determined as 6.9 ± 0.5 mL/min/kg.
Take `COc1cc2c(cc1OC)CN(CCc1ccc(NC(=O)c3cc(OC)c(OC)cc3NC(=O)c3cnc4ccccc4c3)cc1)CC2` [Tariquidar, tariquidar]: the “TNP-G formation, Liver microsome” value in data set [1] (60 min, 100 µM) was determined as 2154.6 ± 26.9 ng/mL. For the same compound, in [6], the “BEI of TNP, % of the control cells” value amounted to 34.5% and the “CLbile, int of TNP reduced to” value is on record as 83.1%. In addition, the “TNP-G formation, UGT1A1” value in data set [2] (60 min, 100 µM) came out at 1533.8 ± 25.4 ng/mL. Moreover, the “cumulative bile excretion of TNP, % of the control level” value in data set [5] is 45%.
